Active and inactive are the calls of the source. The rule behind the calls is not given here.
Tested on: CCRIS mutagenicity, Ames/micronucleus/aberration tests
Assay: CCRIS mutagenicity studies
[1] = Test System: AMES SALMONELLA TYPHIMURIUM, Strain/Indicator: TA98, Metabolic Activation: NONE, Method: PREINCUBATION
[2] = Test System: AMES SALMONELLA TYPHIMURIUM, Strain/Indicator: TA100, Metabolic Activation: NONE, Method: PREINCUBATION
[3] = Test System: AMES SALMONELLA TYPHIMURIUM, Strain/Indicator: TA98, Metabolic Activation: NONE, Method: STANDARD PLATE
[4] = Test System: AMES SALMONELLA TYPHIMURIUM, Strain/Indicator: TA100, Metabolic Activation: NONE, Method: STANDARD PLATE

In the case of COCc1c(O)cc2c(c1O)C(=O)c1ccccc1C2=O, the mutagenic call [1] is reported as “active; positive”, the mutagenic call (Test System: AMES SALMONELLA TYPHIMURIUM, Strain/Indicator: TA98, Metabolic Activation: RAT, LIVER, S-9, PCB, Method: PREINCUBATION) is reported as “active; positive” and the mutagenic call [2] is reported as “active; positive”. For the same compound, the mutagenic call (Test System: AMES SALMONELLA TYPHIMURIUM, Strain/Indicator: TA100, Metabolic Activation: RAT, LIVER, S-9, PCB, Method: PREINCUBATION) was “active; positive”.
In the case of O=[N+]([O-])c1cc(-c2ccccc2)cc([N+](=O)[O-])c1O, the mutagenic call [1] is reported as “active; positive”.
For Clc1ccncc1, the mutagenic call (Test System: AMES SALMONELLA TYPHIMURIUM, Strain/Indicator: TA97, Metabolic Activation: NONE, Method: STANDARD PLATE) was “inactive; negative”, the mutagenic call (Test System: AMES SALMONELLA TYPHIMURIUM, Strain/Indicator: TA97, Metabolic Activation: RAT, LIVER, S-9, AROCLOR 1254, Method: STANDARD PLATE) was “inactive; negative” and the mutagenic call [3] was “inactive; negative”. For the same compound, the mutagenic call (Test System: AMES SALMONELLA TYPHIMURIUM, Strain/Indicator: TA98, Metabolic Activation: RAT, LIVER, S-9, AROCLOR 1254, Method: STANDARD PLATE) was “inactive; negative”, the mutagenic call [4] was “inactive; negative” and the mutagenic call (Test System: AMES SALMONELLA TYPHIMURIUM, Strain/Indicator: TA100, Metabolic Activation: RAT, LIVER, S-9, AROCLOR 1254, Method: STANDARD PLATE) was “inactive; negative”. For the same compound, the mutagenic call (Test System: AMES SALMONELLA TYPHIMURIUM, Strain/Indicator: TA102, Metabolic Activation: NONE, Method: STANDARD PLATE) was “inactive; negative” and the mutagenic call (Test System: AMES SALMONELLA TYPHIMURIUM, Strain/Indicator: TA102, Metabolic Activation: RAT, LIVER, S-9, AROCLOR 1254, Method: STANDARD PLATE) was “inactive; negative”.
In the case of Oc1cc(O)c2c(c1)O[C@H](c1ccc(O)c(O)c1)[C@@H](O)C2, the mutagenic call (Test System: Ames Salmonella typhimurium, Strain/Indicator: TA102, Metabolic Activation: None, Method: Preincubation) is reported as “inactive; negative” and the mutagenic call (Test System: Ames Salmonella typhimurium, Strain/Indicator: TA102, Metabolic Activation: Rat, Liver, S-9, Aroclor 1254 in 0.154 M KCl, Method: Preincubation) is reported as “inactive; negative”.
With CCOP(=O)(OCC)Oc1ccc([N+](=O)[O-])cc1 the mutagenic call (End Point: IN VITRO MICRONUCLEUS, Test System: HUMAN NEWBORN UMBILICAL CORD BLOOD, Metabolic Activation: NONE) was “active; positive only at highest dose”, the mutagenic call (End Point: IN VITRO MICRONUCLEUS, Test System: HUMAN PERIPHERAL LYMPHOCYTES (MALE/FEMALE ADULT), Metabolic Activation: NONE) was “active; positive only at highest dose” and the mutagenic call (End Point: In vitro micronucleus, Test System: Human peripheral blood lymphocytes, Metabolic Activation: None) was “active; positive. pon1 qq, but not pon1 rr individuals exhibited significant increase in”. The mutagenic call [3] was “active; positive”, the mutagenic call (Test System: AMES SALMONELLA TYPHIMURIUM, Strain/Indicator: TA98, Metabolic Activation: RAT, LIVER, S-9, Method: STANDARD PLATE) was “active; positive” and the mutagenic call [4] was “inactive; negative”. For the same compound, the mutagenic call (Test System: AMES SALMONELLA TYPHIMURIUM, Strain/Indicator: TA100, Metabolic Activation: RAT, LIVER, S-9, Method: STANDARD PLATE) was “active; positive”.
With C=C1N(C)c2ccccc2C1(C)C the mutagenic call (Test System: MOUSE LYMPHOMA, Strain/Indicator: L5178Y (TK+/TK-), Metabolic Activation: NONE, Method: SUSPENSION/PLATE) was “inactive; negative. reevaluation of results: negative”, the mutagenic call (Test System: MOUSE LYMPHOMA, Strain/Indicator: L5178Y (TK+/TK-), Metabolic Activation: RAT, LIVER, S-9, AROCLOR 1254, Method: SUSPENSION/PLATE) was “active; positive. reevaluation of results: positive” and the mutagenic call (Test System: Mouse lymphoma, Strain/Indicator: L5178Y (tk+/tk-), Metabolic Activation: None, Method: Suspension/plate) was “inactive; negative”. The mutagenic call (Test System: Mouse lymphoma, Strain/Indicator: L5178Y (tk+/tk-), Metabolic Activation: Rat, Liver, S-9, Aroclor 1254, Method: Suspension/plate) was “active; positive”.
For Cc1cc(NS(=O)(=O)c2ccc(N)cc2)no1, the mutagenic call (End Point: AMES SALMONELLA TYPHIMURIUM, Test System: TA98, Metabolic Activation: NONE, Method: STANDARD PLATE) was “active; positive” and the mutagenic call (End Point: AMES SALMONELLA TYPHIMURIUM, Test System: TA100, Metabolic Activation: NONE, Method: STANDARD PLATE) was “active; positive”.
Cc1cc(=O)oc2cc(O)ccc12 was tested, and the mutagenic call (Test System: AMES SALMONELLA TYPHIMURIUM, Strain/Indicator: TA98, Metabolic Activation: HAMSTER, LIVER, S-9, AROCLOR 1254, Method: PREINCUBATION) was “inactive; negative”, the mutagenic call [1] was “inactive; negative” and the mutagenic call (Test System: AMES SALMONELLA TYPHIMURIUM, Strain/Indicator: TA98, Metabolic Activation: RAT, LIVER, S-9, AROCLOR 1254, Method: PREINCUBATION) was “inactive; negative”. The mutagenic call (Test System: AMES SALMONELLA TYPHIMURIUM, Strain/Indicator: TA100, Metabolic Activation: HAMSTER, LIVER, S-9, AROCLOR 1254, Method: PREINCUBATION) was “inactive; negative”, the mutagenic call [2] was “inactive; negative” and the mutagenic call (Test System: AMES SALMONELLA TYPHIMURIUM, Strain/Indicator: TA100, Metabolic Activation: RAT, LIVER, S-9, AROCLOR 1254, Method: PREINCUBATION) was “inactive; negative”. For the same compound, the mutagenic call (Test System: AMES SALMONELLA TYPHIMURIUM, Strain/Indicator: TA1535, Metabolic Activation: HAMSTER, LIVER, S-9, AROCLOR 1254, Method: PREINCUBATION) was “inactive; negative”, the mutagenic call (Test System: AMES SALMONELLA TYPHIMURIUM, Strain/Indicator: TA1535, Metabolic Activation: NONE, Method: PREINCUBATION) was “inactive; negative” and the mutagenic call (Test System: AMES SALMONELLA TYPHIMURIUM, Strain/Indicator: TA1535, Metabolic Activation: RAT, LIVER, S-9, AROCLOR 1254, Method: PREINCUBATION) was “inactive; negative”. For the same compound, the mutagenic call (Test System: AMES SALMONELLA TYPHIMURIUM, Strain/Indicator: TA1537, Metabolic Activation: HAMSTER, LIVER, S-9, AROCLOR 1254, Method: PREINCUBATION) was “inactive; negative”, the mutagenic call (Test System: AMES SALMONELLA TYPHIMURIUM, Strain/Indicator: TA1537, Metabolic Activation: NONE, Method: PREINCUBATION) was “inactive; negative” and the mutagenic call (Test System: AMES SALMONELLA TYPHIMURIUM, Strain/Indicator: TA1537, Metabolic Activation: RAT, LIVER, S-9, AROCLOR 1254, Method: PREINCUBATION) was “inactive; negative”.
